According to patent US20250177586A1, “HEATING APPARATUS AND METHODS” (ACADEMISCH ZIEKENHUIS LEIDEN (H.O.D.N. LUMC), priority 2018, published 2025):

System: S. Epidermidis biofilm
Experiment: Eradication of biofilm from titanium alloy coupon by induction-heating thermal shock followed by antibiotics (FIG. 13)
Assay type: cell-based
Details: vancomycine 10 mg/L and rifampicine 1 mg together, 24 hours exposure in BHI culture medium, after thermal shock of 65° C. from 3.5 minutes with induction heating, N=6 or greater
Source text: N=6 or greater for each group.

Row | Structure (SMILES) | eradication of biofilm (active count, Log (CFU/cm^2))
1 | CO[C@H]1/C=C/O[C@@]2(C)Oc3c(C)c(O)c4c(O)c(c(/C=N/N5CCN(C)CC5)c(O)c4c3C2=O)NC(=O)/C(C)=C\C=C\[C@H](C)[C@H](O)[C@@H](C)[C@@H](O)[C@@H](C)[C@H](OC(C)=O)[C@@H]1C [rifampicine] | full eradication
2 | CN[C@H](CC(C)C)C(=O)N[C@H]1C(=O)N[C@@H](CC(N)=O)C(=O)N[C@H]2C(=O)N[C@H]3C(=O)N[C@H](C(=O)N[C@H](C(=O)O)c4cc(O)cc(O)c4-c4cc3ccc4O)[C@H](O)c3ccc(c(Cl)c3)Oc3cc2cc(c3O[C@@H]2O[C@H](CO)[C@@H](O)[C@H](O)[C@H]2O[C@H]2C[C@](C)(N)[C@H](O)[C@H](C)O2)Oc2ccc(cc2Cl)[C@H]1O [vancomycine] | full eradication
